Measured values as given in the METLIN SMRT retention time set (Domingo-Almenara et al. 2019).

assay: gradient 5% acetonitrile 3 min, to 50% in 2 min, to 85% in 15 min, held 3 min, 100 µL/min; conditions: column: Zorbax Extend-C18 2.1 x 50 mm; eluents: water / acetonitrile, 0.1% formic acid
In short: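 Pure standards were run in mixtures of ~100 molecules by HPLC coupled to a quadrupole time-of-flight mass spectrometer. The column was a Zorbax Extend-C18 (2.1 × 50 mm, 1.8 μm) at 100 μL/min, with water and acetonitrile each containing 0.1% formic acid, in positive and negative ionization mode. Dead and dwell volumes were 40 μL and 900 μL. Retention time was taken from computationally picked adduct peaks, each manually inspected, with data collected over 3 months.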

Compound | RP-LC retention time [s]
CCN(CC)C(=O)c1cnc2snc(C)c2c1N1CCC(C(=O)Nc2cc(OC)c(OC)c(OC)c2)CC1 | 810
O=C(Nc1nnc(-c2ccco2)o1)C1c2ccccc2Oc2ccccc21 | 783
CCSc1nnc(-c2nn(C)c3c2CN(S(=O)(=O)c2cc(Cl)ccc2OC)CC3)n1CC | 975
CCOC(=O)c1csc(NC(=O)c2sc3ccccc3c2Cl)n1 | 999
COc1ccc(-c2nc(Cn3c(C)cc(C)c(-c4nc(-c5ccccc5)no4)c3=O)c(C)o2)cc1 | 1230
Cc1ccc(N2CC(c3nc(-c4ccc5c(c4)oc(=O)n5C(C)C)no3)CC2=O)cc1 (configuration not stated) | 990
COc1ccc(C2Cn3nnc(-c4nc(-c5ccncc5)no4)c3CO2)cc1 (configuration not stated) | 873
CC(C)OCCCNC(=O)CCc1c(-c2ccc(F)cc2)nc2ccccn12 | 622
COc1ccc(-c2nnc(-c3cccnc3NCc3cc(OC)cc(OC)c3)o2)cc1 | 1160
O=C(O)c1cn(CCc2ccccc2)nc1S(=O)(=O)N1CCSCC1 | 838
COc1ccc(OCc2nnc3sc(C4COc5ccccc5O4)nn23)cc1 (configuration not stated) | 913
COc1ccc(Cl)cc1S(=O)(=O)N1CCC(OC2CCN(C)CC2)CC1 | 791
Cc1cccc(-c2noc(Cc3nnc(-c4ccc(C)c(C)c4)o3)n2)c1 | 1190
CCCS(=O)(=O)N1CCC(c2noc(-c3cccnc3)n2)C1 (configuration not stated) | 730
CC[C@H](C)C(=O)O[C@H]1C[C@H](O)C=C2C=C[C@H](C)[C@H](CC[C@@H]3C[C@@H](O)CC(=O)O3)[C@H]21 | 891
CCOC(=O)c1sc(NCCc2c[nH]c3ccc(OC)cc23)nc1-c1ccccc1 | 1040
O=C(NCCc1csc(C2CCCN(C(=O)C3CCOC3)C2)n1)C1CC1 (configuration not stated) | 753
N#Cc1ccc(-n2cnc(C(=O)Nc3cccc(C(F)(F)F)c3)c2)cc1 | 889
CCS(=O)(=O)N1CC(=O)N(Cc2cccc(C)c2)C(C)(C(=O)NCc2ccc(F)cc2)C1 (configuration not stated) | 882
CC(C)(CO)NC(=O)Cc1ccc(NC(=O)C2(c3ccc(F)cc3)CC2)cc1 | 734

Compound | RP-LC retention time [s]
O=C(NCc1ccco1)C1CCN(S(=O)(=O)c2cc(C(=O)N3CCCCCC3)cs2)CC1 | 815
O=C1C(O)=C(S(=O)(=O)c2ccc(Cl)cc2)C(c2ccc(F)cc2)N1Cc1ccco1 (configuration not stated) | 972
CCS(=O)(=O)N1CCc2ccc(NC(=O)c3cccs3)cc2C1 | 747
CN(C)c1ccc2c(c1)CN(Cc1ccccc1C#N)CCO2 | 592
O=S(=O)(c1cccc2nsnc12)N1CCc2nc(-c3ccccc3)ncc2C1 | 1000
CCc1nc2ccccc2c(=O)n1Cc1noc(-c2ccc(OC)c(OC)c2)n1 | 894
Cc1occc1C(=O)Nc1nc(-c2ccc3ccccc3c2)cs1 | 1170
COC(=O)C1=CN(c2ccc(OC)c(Cl)c2)c2ccc(F)cc2S1(=O)=O | 886
Fc1ccccc1N1CCN(Cc2nc(-c3ccc(N4CCCC4)nc3)no2)CC1 | 698
Cc1ccc(NC(=O)Nc2ccc(CC(N)=O)cc2)cc1C | 675
CCOC(=O)Cc1csc(NC(=O)Cc2csc(Nc3cc(C)ccn3)n2)n1 | 624
COc1ccc(-c2cn3c(CC(=O)Nc4cccc(C#N)c4)csc3n2)cc1OC | 704
Cc1cc(Cl)cc2sc(NCC3CCCO3)nc12 (configuration not stated) | 958
CCCCCn1c(CN(C)C(=O)c2ccco2)nc2ccccc21 | 700
COC(=O)c1cc2c(=O)n(CCc3c[nH]c4ccc(OC)cc34)ccc2nc1C | 774
Cc1ccc2c(c1)[C@H]1OCCC[C@H]1C(c1cccc(O)c1)N2 (some centres not stated) | 928
O=C(CSc1nnc(CCc2nc3ccccc3[nH]2)o1)Nc1nccs1 | 556
CCc1sc(NC(=O)c2cc3c([nH]c2=O)CCCC3=O)nc1-c1ccc(Cc2ccccc2)cc1 | 1140
CCc1c(C(=O)O)nnn1-c1ccc2c(c1)OCCO2 | 702

The next lines start with the values.

RP-LC retention time [s] | Compound
848 | O=C(NC1CC1)c1ccccc1OCC1CCN(C(=O)c2cc(F)cc(F)c2)CC1
657 | Cc1ccn2cc(C(=O)NCc3cc(F)ccc3F)nc2c1
653 | O=C(Cc1cccs1)NCCS(=O)(=O)N1CCN(c2ncccn2)CC1
993 | COC(=O)c1ccccc1NC(=O)Cn1c(-c2nonc2N)nc2ccccc21
532 | COCc1nc2ccccc2n1CC(=O)NCC1CCCO1 (configuration not stated)
632 | Cc1cccc(NC(=O)Cn2nc3n(c2=O)CCCC3)c1C
806 | Cc1ccccc1CC(=O)Nc1ccc2c(c1)Sc1ncccc1C(=O)N2C
895 | Cc1ccccc1OCC(=O)N1CCN(c2nc(CN3CCCCC3)cs2)CC1
585 | CN(C)c1ccc(NC(=O)COc2ccc(-c3nnc4n3CCCC4)cc2)cc1
641 | CCCCNC(=O)CCC1CCCN(c2cc(NCC)ncn2)C1 (configuration not stated)
616 | COc1cc(Nc2c(C(=O)N3CCCC3)cnc3nc(C)ccc23)cc(OC)c1
816 | Cc1cc(C)cc(NC(=O)C2CCN(C(=O)c3ncn4c3COC(c3ccc(F)cc3)C4)CC2)c1 (configuration not stated)
872 | CCC(=O)N1CCc2c(C(=O)N3CCN(c4ccccc4F)CC3)cccc21
1130 | Cc1c(C(=O)NC2CCCC2)cnn1-c1cc(-c2nc(C(C)(C)C)no2)ccn1
900 | Cc1nc(NCc2ccco2)sc1C(=O)Nc1ccc(F)c(Cl)c1
675 | Cc1cc2[nH]c(C(=O)Nc3c(F)cccc3F)c(CN3CCOCC3)c2s1
880 | CC(=O)c1cccc(NC(=O)CN2CCCN(Cc3cccc(F)c3)S2(=O)=O)c1
764 | CCc1cc(=O)n(CC(=O)Nc2cccc(C)c2C)c(N2CCOCC2)n1
890 | O=C(CN1C(=O)C2CCCCN2C(=O)c2ccccc21)Nc1ccc(C(F)(F)F)cc1 (configuration not stated)
1010 | O=C(c1ccccc1Br)N1CCc2nc(-c3ccc(F)cc3)ncc2C1
693 | O=C(Cn1ncc2c3ccccc3n(Cc3ccccc3)c2c1=O)N1CCN(c2ccccn2)CC1
766 | CN(C(=O)C1CCCN(c2ncnc3c2nc2n3CCCCC2)C1)c1ccccc1 (configuration not stated)
684 | CSc1ccc(NC(=O)c2cn3c(n2)COCC3)cc1
608 | COC[C@@H]1CN(Cc2cccc(C#N)c2)C[C@H]1c1ccccn1

RP-LC retention time [s] | Compound
882 | O=C(Cn1nc(S(=O)(=O)c2cccc(F)c2)ccc1=O)N1CCN(c2ccc(F)cc2)CC1
955 | CC1CCCN(c2cc(SCC(=O)Nc3ccc(F)cc3)ncn2)C1 (configuration not stated)
709 | Cc1ccc(Cl)cc1NC(=O)N1CCCC(Cn2cnc3cccnc32)C1 (configuration not stated)
1420 | Cc1ccc(S(=O)(=O)c2cnc(N3CCN(c4cc(Cl)ccc4C)CC3)nc2N)cc1C
610 | O=C(Cn1ncc2c(N3CCN(c4ccccn4)CC3)ncnc21)Nc1ccccc1C(F)(F)F
1130 | COc1ccc(Cl)cc1S(=O)(=O)N1CCC(c2noc(-c3ccccc3)n2)CC1
654 | CCn1cnc2cc(-c3noc(CNC(=O)c4ccc(C)cc4)n3)ccc21
702 | O=C(Nc1cnn(-c2ncncc2N2CCCCC2)c1)c1ccc2c(c1)OCO2
936 | CC(C)Cn1c(=O)c(C(=O)NC2CCCC2)nc2cccnc21
755 | CCN1C(=O)c2cccnc2Sc2cc(CNC(=O)c3ccc(OC)cc3)ccc21
970 | Cc1ccc(C)c(NS(=O)(=O)c2ccc3c(c2)C(=O)N(C)c2ncccc2O3)c1
1210 | O=S(=O)(c1cc(F)ccc1F)N1CCc2nc(-c3ccc(Cl)cc3)ncc2C1
904 | COc1ccc(OCc2nc(C3CN(C(=O)C4(c5ccccc5)CC4)C3)no2)cc1
698 | CCn1ccc(C(=O)Nc2ccc3c(c2)Sc2ncccc2C(=O)N3C)n1
709 | Cc1ccccc1C(=O)CC1(O)C(=O)Nc2ccccc21 (configuration not stated)
548 | CCOC(=O)C1CCC(CNC(=O)N2CCC(c3nc4ccncc4n3C)C2)CC1 (configuration not stated)
817 | O=C(C1CC(=O)N(c2n[nH]c3cccc(F)c23)C1)N1CCN(c2ccc(Cl)cc2)CC1 (configuration not stated)
584 | O=C(c1ccncc1)N1CCC(c2noc(-c3cnccn3)n2)C1 (configuration not stated)
690 | Cc1cc(C)cc(NC(=O)CSc2ccc(N3CCCC(C(=O)NC4CC4)C3)nn2)c1 (configuration not stated)
914 | COc1ccc(-c2cn3c(CC(=O)Nc4ccc(Br)c(C)c4)csc3n2)cc1
855 | COCCN1C(=O)c2ccccc2C(C(=O)NCc2ccccc2OC)C12CCCC2 (configuration not stated)
995 | Cc1ccc(C(CC(=O)N2CCN(c3ccccn3)CC2)n2cccc2)cc1 (configuration not stated)
886 | CCCn1c(-c2cccc(C(=O)NC(CC)c3cccs3)c2)nc2cccnc21 (configuration not stated)
1060 | Cc1cccc(N2CCN(C(=O)c3sc4ncccc4c3-n3cccc3)CC2)c1
